This is an account of results in patent publication US9145415B2, “Nitrogen-containing heterocyclic compound or salt thereof” (FUJIFILM Corporation, priority 2012, dated 2015).

Where two headings read alike, the source gives them in different places.

For test [1], the system named is MV4-11 cells. Put plainly: Leukemia cell proliferation inhibition test (ATPlite), MV4-11. The format is cell-based. The note with it: Homo sapiens, read-out: MV4-11 cell proliferation inhibition effect. In short, it runs like this:
(§1)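 Molm-13 or MV4-11 cells at 10,000 cells/well in RPMI with 10% FBS and pen/strep were exposed to serially diluted compound for 72 h at 37 °C, 5% CO2. Total cellular ATP was read by luciferase luminescence. GI50 was taken relative to 0.1% DMSO control, from duplicates by sigmoid non-linear regression.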
Background: In ATP-based viability assays light output follows the ATP content of the culture.

Test [2] addresses T1, human FLT3 protein (FLT3 (WT)) (Homo sapiens, UniProt P36888).
T1 construct: human FLT3 protein (intracellular region, 564 to 993 aa); GST; purchased Carna Biosciences; host or cells: baculovirus expression system
T1 sequence (P36888 564-993): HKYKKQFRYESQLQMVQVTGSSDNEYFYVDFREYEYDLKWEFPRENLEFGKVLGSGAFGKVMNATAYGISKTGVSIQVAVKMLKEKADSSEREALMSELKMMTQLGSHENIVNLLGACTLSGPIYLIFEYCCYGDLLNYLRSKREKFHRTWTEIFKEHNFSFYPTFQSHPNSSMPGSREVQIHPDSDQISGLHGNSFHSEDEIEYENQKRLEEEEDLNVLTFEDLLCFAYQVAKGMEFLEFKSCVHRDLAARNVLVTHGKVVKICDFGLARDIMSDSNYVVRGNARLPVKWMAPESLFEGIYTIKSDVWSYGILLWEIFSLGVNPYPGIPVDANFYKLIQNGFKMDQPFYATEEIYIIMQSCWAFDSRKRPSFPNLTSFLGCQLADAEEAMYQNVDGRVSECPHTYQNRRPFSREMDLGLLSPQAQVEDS
Put plainly: FLT3 inhibition test (FLT3 enzyme inhibition, time-resolved fluorescence of substrate peptide phosphorylation). The conditions noted are these: read-out: FLT3 (WT) enzyme inhibition activity. The format is biochemical. The procedure, abridged:
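Wild-type human FLT3 (1.2 μg) pre-incubated with compound 15 min at 25° C in 100 mM HEPES pH 7.5, 10 mM MgCl2, 25 mM NaCl, 1 mM DTT. Reaction started with substrate peptide and ATP (final 50 μM), run 30 min at 25° C; phosphorylation read by time-resolved fluorescence.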

Test [3] deals with Molm-13 cells. Nature of the test: Leukemia cell proliferation inhibition test (ATPlite), Molm-13. The format is cell-based. The note with it: Homo sapiens, read-out: MOLM13 cell proliferation inhibition effect. The procedure, abridged: as §1
[4] abbreviates: MV4-11, 72 h, MV4-11, 72 hours culture, ATPlite, GI50 per method.
The mark [5] stands for this setting: GST-fused human FLT3 (564 to 993 aa), ATP 50 μM.
[6] abbreviates: MOLM-13, 72 h, Molm-13, 72 hours culture, ATPlite, GI50 per method.

For the compound `CNc1nc(Nc2ccc(C#N)cc2)ncc1C#CCCCNC(=O)[C@@H]1C[C@H](F)CN1C(=O)/C=C/CN(C)C` [Compound 7-87, (2S,4S)—N-(5-(2-((4-Cyanophenyl)amino)-4-(methylamino)pyrimidin-5-yl)-4-pentyn-1-yl)-1-((E)-4-(dimethylamino)-2-butenoyl)-4-fluoropyrrolidine-2-carboxamide], the IC50 in test [1] (setting [4]), in test [2] (setting [5]) and in test [3] (setting [6]) was less than 10 nM each time.
In the case of `C[C@@H](C(=O)NCCCC#Cc1cnc(Nc2ccc(C#N)cc2)nc1-n1nccn1)N(C)C(=O)/C=C/CN(C)C` [Compound 20-3], the IC50 is less than 10 nM in test [1] (setting [4]), 10 to 100 nM in test [2] (setting [5]) and less than 10 nM in test [3] (setting [6]).
Take `CCCNc1nc(Nc2ccc(C#N)cc2)ncc1C#CCCCNC(=O)CN(C(=O)/C=C/CN(C)C)C(C)C` [Compound 7-40]: the IC50 in test [1] (setting [4]), in test [2] (setting [5]) and in test [3] (setting [6]) was less than 10 nM in each case.
As for `CCCNc1nc(Nc2cnc3[nH]nc(C)c3c2)ncc1C#CCCCNC(=O)[C@@H]1CCCN1C(=O)/C=C/CN(C)C` [Compound 22-56, (S,E)-1-(4-(Dimethylamino)-2-butenoyl)-N-(5-(2-((3-methyl-1H-pyrazolo[3,4-b]pyridin-5-yl)amino)-4-(propylamino)pyrimidin-5-yl)-4-pentyn-1-yl)pyrrolidine-2-carboxamide], the IC50 is less than 10 nM in test [1] (MV4-11, MV4-11 cell); less than 10 nM in test [2] (FLT3 (WT)); less than 10 nM in test [3] (MOLM-13, MOLM13 cell).
As for `CNc1nc(Nc2ccc(C#N)cc2)ncc1C#C[C@@H]1CCC[C@H](NC(=O)[C@H](C)N(C)C(=O)/C=C/CN(C)C)C1` [Compound 15-5, (E)-N—((S)-1-(((1S,3R)-3-((2-((4-Cyanophenyl)amino)-4-(methylamino)pyrimidin-5-yl)ethynyl)cyclohexyl)amino)-1-oxopropan-2-yl)-4-(dimethylamino)-N-methyl-2-butenamide], the IC50 in test [1] (setting [4]), in test [2] (setting [5]) and in test [3] (setting [6]) was less than 10 nM throughout.
Regarding `CNc1nc(Nc2ccc(F)cc2)ncc1C#CCCCNC(=O)[C@@H]1CC(F)(F)CN1C(=O)/C=C/CN(C)C` [Compound 7-93], the IC50 in test [1] (setting [4]), in test [2] (setting [5]) and in test [3] (setting [6]) was less than 10 nM each time.
For `CNc1nc(Nc2ccc3c(c2)c(F)nn3C)ncc1C#CCCCNC(=O)[C@H](C)N(C)C(=O)/C=C/CN(C)C` [Compound 21-49], the IC50 in test [1] (MV4-11, MV4-11 cell) is less than 10 nM; in test [2] (FLT3 (WT)) it was 10 to 100 nM; in test [3] (MOLM-13, MOLM13 cell) it was less than 10 nM.
For the compound `CCCNc1nc(Nc2ccc3c(c2)c(N(C)C)nn3C)ncc1C#CCCCNC(=O)[C@H](C)N(C)C(=O)/C=C/CN(C)C` [Compound 22-12], the IC50 in test [1] (MV4-11, MV4-11 cell) is less than 10 nM; in test [2] (FLT3 (WT)) it was less than 10 nM; in test [3] (MOLM-13, MOLM13 cell), less than 10 nM.
Turning to `C=CC(=O)NCCC(=O)NCCNC(=O)c1cnc(NCCc2ccncc2)nc1NCCC` [Compound 2-19], the IC50 in test [1] (setting [4]) is greater than 1000 nM; in test [2] (setting [5]), 10 to 100 nM; in test [3] (setting [6]) it was greater than 1000 nM.
Consider `CCCNc1nc(Nc2cnc3c(cnn3CCOC)c2)ncc1C#CCCCNC(=O)[C@@H]1CCCN1C(=O)/C=C/CN(C)C` [Compound 22-44, (S,E)-1-(4-(Dimethylamino)-2-butenoyl)-N-(5-(2-((1-(2-methoxyethyl)-1H-pyrazolo[3,4-b]pyridin-5-yl)amino)-4-(propylamino)pyrimidin-5-yl)-4-pentyn-1-yl)pyrrolidine-2-carboxamide], for which the IC50 is less than 10 nM in test [1] (MV4-11, MV4-11 cell); less than 10 nM in test [2] (FLT3 (WT)); less than 10 nM in test [3] (MOLM-13, MOLM13 cell).
With `CCCNc1nc(Nc2cc(C)no2)ncc1C#CCCCNC(=O)[C@@H]1CCCN1C(=O)/C=C/CN(C)C` [Compound 7-79], the IC50 in test [1] (setting [4]), in test [2] (setting [5]) and in test [3] (setting [6]) was less than 10 nM each time.
As to `CCCNc1nc(Nc2ccc3cn[nH]c3c2)ncc1C#CCCCNC(=O)[C@@H]1CCCN1C(=O)/C=C/CN(C)C` [Compound 22-63], the IC50 in test [1] (MV4-11, MV4-11 cell) is less than 10 nM; in test [2] (FLT3 (WT)), less than 10 nM; in test [3] (MOLM-13, MOLM13 cell), less than 10 nM.
As to `CNc1nc(Nc2ccc3cn[nH]c3c2)ncc1C#CCCCNC(=O)[C@H](C)N(C)C(=O)/C=C/CN(C)C` [Compound 10-63], the IC50 in test [1] (setting [4]), in test [2] (setting [5]) and in test [3] (setting [6]) was less than 10 nM throughout.
With `COc1nc(Nc2ccc(C#N)cc2)ncc1C#C[C@@H]1CCC[C@H](NC(=O)[C@H](C)N(C)C(=O)/C=C/CN(C)C)C1` [Compound 15-1, (E)-N—((S)-1-(((1S,3R)-3-((2-((4-cyanophenyl)amino)-4-methoxypyrimidin-5-yl)ethynyl)cyclohexyl)amino)-1-oxopropan-2-yl)-4-(dimethylamino)-N-methyl-2-butenamide], the IC50 in test [1] (setting [4]), in test [2] (setting [5]) and in test [3] (setting [6]) was less than 10 nM in each case.
In the case of `C=CC(=O)NCC(=O)NCCCNC(=O)c1cnc(NCCc2ccncc2)nc1NCCC` [Compound 2-2, N-(3-(2-(acrylylamido)actamido)propyl)-4-(propylamino)-2-((2-(pyridin-4-yl)ethyl)amino)pyrimidine-5-carboxamide], the IC50 in test [1] (setting [4]) is 10 to 100 nM; in test [2] (setting [5]), less than 10 nM; in test [3] (setting [6]), 10 to 100 nM.
As for `CNc1nc(Nc2cccc(F)c2)ncc1C#C[C@@H]1CCC[C@H](NC(=O)[C@H](C)N(C)C(=O)/C=C/CN(C)C)C1` [Compound 15-6], the IC50 in test [1] (setting [4]), in test [2] (setting [5]) and in test [3] (setting [6]) was less than 10 nM each time.
Turning to `CCCNc1nc(Nc2ccc(C#N)cc2)ncc1C#CCCCNC(=O)[C@@H]1CCCCN1C(=O)/C=C/CN(C)C` [Compound 7-37], the IC50 in test [1] (setting [4]), in test [2] (setting [5]) and in test [3] (setting [6]) was less than 10 nM each time.
In the case of `COc1ccc(Nc2nc(Nc3ccc(F)cc3)ncc2C#CCCCNC(=O)CN(C)C(=O)/C=C/CN(C)C)cn1` [Compound 10-20], the IC50 in test [1] (setting [4]), in test [2] (setting [5]) and in test [3] (setting [6]) was less than 10 nM throughout.
With `CNc1nc(Nc2cccc(F)c2)ncc1C#C[C@H]1C[C@@H](NC(=O)[C@H](C)N(C)C(=O)/C=C/CN(C)C)C1` [Compound 13-13, (E)-4-(Dimethylamino)-N—((S)-1-(((1S,3R)-3-((2-((3-fluorophenyl)amino)-4-(methylamino)pyrimidin-5-yl)ethynyl)cyclobutyl)amino)-1-oxopropan-2-yl)-N-methyl-2-butenamide], the IC50 in test [1] (setting [4]), in test [2] (setting [5]) and in test [3] (setting [6]) was less than 10 nM in each case.
As to `CCCNc1nc(Nc2ccc(C(N)=O)cc2)ncc1C#Cc1cccc(NCCNC(=O)/C=C/CN(C)C)c1` [Compound 8-5], the IC50 in test [1] (setting [4]) was 10 to 100 nM; in test [2] (setting [5]) it was less than 10 nM; in test [3] (setting [6]), 10 to 100 nM.
Consider `CCCNc1nc(Nc2cccc(F)c2)ncc1C#CCCCNC(=O)[C@@H]1C[C@@H](OC)CN1C(=O)/C=C/CN(C)C` [Compound 7-58], for which the IC50 in test [1] (setting [4]), in test [2] (setting [5]) and in test [3] (setting [6]) was less than 10 nM each time.
`CCCNc1nc(NCCc2ccncc2)ncc1C(=O)Nc1ccc(C)c(NC(=O)CNC(=O)/C=C/CN(C)C)c1` [Compound 1-8]: the IC50 in test [1] (setting [4]) was less than 10 nM; in test [2] (setting [5]) it was less than 10 nM; in test [3] (setting [6]), 10 to 100 nM.
For the compound `CCCNc1nc(NCCc2ccncc2)ncc1C#Cc1cccc(NC(=O)[C@H](C)N(C)C(=O)/C=C/CN(C)C)c1` [Compound 8-6], the IC50 in test [1] (setting [4]), in test [2] (setting [5]) and in test [3] (setting [6]) was less than 10 nM each time.
On to `CCCNc1nc(Nc2ccnc(OC)c2)ncc1C#CCCCNC(=O)CN(C)C(=O)/C=C/CN(C)C` [Compound 9-38, (E)-4-(Dimethylamino)-N-(2-((5-(2-((2-methoxypyridin-4-yl)amino)-4-(propylamino)pyrimidin-5-yl)-4-pentyn-1-yl)amino)-2-oxoethyl)-N-methyl-2-butenamide], for which the IC50 in test [1] (setting [4]), in test [2] (setting [5]) and in test [3] (setting [6]) was less than 10 nM each time.
Consider `CNc1nc(Nc2ccc(OC)c(F)c2)ncc1C#C[C@H]1C[C@@H](NC(=O)[C@H](C)N(C)C(=O)/C=C/CN(C)C)C1` [Compound 13-16, (E)-4-(Dimethylamino)-N—((S)-1-(((1S,3R)-3-((2-((3-fluoro-4-methoxyphenyl)amino)-4-(methylamino)pyrimidin-5-yl)ethynyl)cyclobutyl)amino)-1-oxopropan-2-yl)-N-methyl-2-butenamide], for which the IC50 in test [1] (setting [4]), in test [2] (setting [5]) and in test [3] (setting [6]) was less than 10 nM throughout.
